The text below walks through data of PMC8623047, “Novel Antioxidants and α-Glycosidase and Protein Tyrosine Phosphatase 1B Inhibitors from an Endophytic Fungus Penicillium brefeldianum F4a” (Journal of Fungi, 2021).

One assay addresses T1, PTP1B (Homo sapiens, UniProt P18031).
T1 sequence (P18031 1-435): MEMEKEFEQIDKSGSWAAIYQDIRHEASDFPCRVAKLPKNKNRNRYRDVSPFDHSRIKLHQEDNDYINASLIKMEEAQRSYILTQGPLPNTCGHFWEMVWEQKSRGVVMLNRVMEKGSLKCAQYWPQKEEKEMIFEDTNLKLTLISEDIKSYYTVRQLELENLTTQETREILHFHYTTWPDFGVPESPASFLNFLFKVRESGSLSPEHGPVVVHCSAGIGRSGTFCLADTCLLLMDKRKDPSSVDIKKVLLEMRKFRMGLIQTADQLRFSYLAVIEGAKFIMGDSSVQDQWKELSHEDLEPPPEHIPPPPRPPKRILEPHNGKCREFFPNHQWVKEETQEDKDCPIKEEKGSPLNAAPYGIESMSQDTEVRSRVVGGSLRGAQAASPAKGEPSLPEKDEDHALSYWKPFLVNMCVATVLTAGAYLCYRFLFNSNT
Nature of the assay: PTP1B inhibitory assay (p-NPP substrate). It counts as biochemical. Particulars: mean ± SD, n = 3; sample concentration achieving 50% of activity. The procedure:
The PTP1B inhibitory activity was established according to the previously reported methods. The reagent para-nitrophenyl phosphate (p-NPP) was used as a substrate for PTP1B. Then, 81 μL enzyme in buffer (pH 7.5), including EDTA (1 mM), Tris-HCl (25 mM), dithiothreitol (DTT) (1 mM), β-mercaptoethanol (2 mM), and 10 μL of sample at various concentrations in DMSO (the blank control used 10 μL of DMSO instead of the sample), was incubated in 96-well plates at 37 °C for 10 min. Then, 4 μL p-NPP (10 mM) in buffer was added and incubated at 37 °C for 30 min. Next, 5 μL of 2 M NaOH solution was added to terminate the reaction. Then, the absorbance was determined at 405 nm wavelength.

Assay [1] is described as follows: ABTS radical scavenging assay. The note with it: mean ± SD, n = 3; 6 min, 734 nm. The protocol: The ABTS free radical scavenging assay was tested according to the previously reported methods. […] The mixture was incubated in darkness at room temperature for 12 h before use. […] Then, 100 μL of the sample at various concentrations in ethanol (the blank control used 100 μL of ethanol instead of the sample) was added to 3.0 mL of diluted ABTS^•+ solution and mixed vigorously. […] L-Ascorbic acid was used as the positive control.

A short description of assay [2]: DPPH radical scavenging assay. The note with it: mean ± SD, n = 3; 30 min, 517 nm. The protocol: The DPPH free radicals scavenging assay was tested according to the previously reported methods. First, 100 μL of sample at different concentrations in ethanol (the blank control used 100 μL of ethanol instead of the sample) was added to 96 wells, followed by 100 μL of 0.15 mM DPPH. […] L-Ascorbic acid was used as the positive control.
On the technique in general: DPPH is a stable violet radical that fades when it is reduced.

For assay [3] the following is noted: previous studies; cited from earlier work.

Turning to `C[C@]1(O)Cc2oc3cc(O)c(O)cc3c(=O)c2CO1` [Compound 5, penialidin F], the EC50 at PTP1B was above 50 µM; in assay [1], 7.61 ± 0.46 µM; in assay [2], 28.4 ± 3.16 µM.
Take `COc1cc(O)cc(C)c1Cc1oc(C[C@@H](C)O)cc1C(=O)O` [Compound 1, peniorcinol A]: the EC50 at PTP1B was above 50 µM; in assay [1] it was 21.9 ± 1.06 µM; in assay [2] it was above 100 µM.
On to `C=C1C=CC(=O)[C@]1(CO)Cc1c(C)cc(O)cc1OC` [Compound 3, peniorcinol C], for which the figures for the concentration for a half-maximal effect (EC50) (at PTP1B; in assay [1]; in assay [2]) were above 50 µM, 32.7 ± 3.86 µM and above 100 µM, respectively.
With `O=C1O[C@H]([C@@H](O)CO)C(O)=C1O` [L-Ascorbic acid, reference compound], the 50% effective concentration (EC50) in assay [1] is 18.8 ± 3.39 µM; in assay [2] it was 6.12 ± 0.17 µM.
Regarding `COc1cc(O)cc(C)c1CC(=O)O` [Compound 9, 2-(4-hydroxy-2-methoxy-6-methylphenyl) acetic acid], the results for the concentration for a half-maximal effect (EC50) (at PTP1B; in assay [1]; in assay [2]) were above 50 µM, 30 ± 4.17 µM and above 100 µM, respectively.
As for `C[C@]1(O)Cc2oc3c(C(=O)O)c(O)c(O)cc3c(=O)c2CO1` [Compound 4, penialidin A], the “DPPH• scavenging activity IC50” value in assay [3] was 156.38 µg/mL. For the same molecule, the figures for the EC50 (at PTP1B; in assay [1]; in assay [2]) were above 50 µM, 14.5 ± 0.46 µM and above 100 µM, respectively.
The molecule `Cc1cc2nc3c(=O)[nH]c(=O)nc-3n(C[C@H](O)[C@H](O)[C@H](O)CO)c2cc1C` [Compound 7, riboflavin] returned a half-maximal effective concentration (EC50) at PTP1B of 8.87 ± 0.91 µM.
For `COc1cc(O)cc(C)c1Cc1oc(C)cc1C(=O)O` [Compound 2, peniorcinol B], the EC50 was above 50 µM on PTP1B, 28.2 ± 2.87 µM in assay [1] and above 100 µM in assay [2].
In the case of `CC1=Cc2oc3cc(O)c(O)cc3c(=O)c2CO1` [Compound 6, myxotrichin C], the concentration giving a half-maximal response (EC50) on PTP1B was above 50 µM; in assay [1], 15 ± 2.57 µM; in assay [2], 30.1 ± 2.83 µM.
The molecule `O=C(O)Cc1c[nH]c2ccccc12` [Compound 8, indole-3-acetic acid] returned an EC50 at PTP1B of 11.7 ± 1.03 µM.

Usually EC50 stands for the concentration needed to bring the measured effect to its halfway point. A low value points to greater potency.
